Measured values: patent US11485740B2, “Inhibitors of TRPC6” (Boehringer Ingelheim International GmbH, priority 2018, dated 2022)

Biological target: T1, human TRPC6 (Homo sapiens, UniProt Q9Y210)
T1 construct: expressed in transfected cells
T1 sequence (Q9Y210 1-931): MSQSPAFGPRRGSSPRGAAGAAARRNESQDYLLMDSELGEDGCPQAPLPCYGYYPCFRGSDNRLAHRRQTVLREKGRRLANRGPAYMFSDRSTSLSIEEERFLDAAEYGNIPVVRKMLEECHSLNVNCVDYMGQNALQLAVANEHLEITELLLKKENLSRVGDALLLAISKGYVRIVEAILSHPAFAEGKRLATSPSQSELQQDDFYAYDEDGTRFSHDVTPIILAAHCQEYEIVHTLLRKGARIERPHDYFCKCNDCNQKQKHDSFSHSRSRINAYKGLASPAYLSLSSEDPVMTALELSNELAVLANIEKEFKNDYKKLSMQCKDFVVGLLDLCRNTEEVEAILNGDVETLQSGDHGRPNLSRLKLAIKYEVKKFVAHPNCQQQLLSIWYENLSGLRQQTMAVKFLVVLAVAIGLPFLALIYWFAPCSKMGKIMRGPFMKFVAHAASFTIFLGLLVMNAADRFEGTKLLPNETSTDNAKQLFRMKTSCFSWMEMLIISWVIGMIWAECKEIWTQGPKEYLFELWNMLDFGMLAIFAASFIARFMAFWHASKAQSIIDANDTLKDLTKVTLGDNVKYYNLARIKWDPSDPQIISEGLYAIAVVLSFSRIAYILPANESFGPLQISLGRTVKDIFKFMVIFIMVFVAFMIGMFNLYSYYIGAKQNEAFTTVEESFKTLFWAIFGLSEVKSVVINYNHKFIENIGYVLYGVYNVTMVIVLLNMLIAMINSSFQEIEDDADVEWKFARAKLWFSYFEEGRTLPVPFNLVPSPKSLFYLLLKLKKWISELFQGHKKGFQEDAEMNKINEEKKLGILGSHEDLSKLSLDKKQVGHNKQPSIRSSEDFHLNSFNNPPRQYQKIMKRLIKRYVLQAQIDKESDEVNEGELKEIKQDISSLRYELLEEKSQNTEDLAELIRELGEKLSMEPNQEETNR
Assay: High throughput screening assay: Fluo4/AM calcium fluorescence in HEK293/TREx cells expressing human TRPC6, agonist GSK1702934A (single concentration 10 μM and IC50 curves)
Format: cell-based
Settings: antagonist effect against human TRPC6, 7 concentrations 20 μM to 0.027 μM, triplicate
Outline: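 HEK293/TREx cells stably carrying tetracycline-induced (1 μg/ml) human TRPC6, loaded with Fluo4/AM (0.5 μM, 60 min, RT), pretreated 2 min with compound (10 μM final in screen), then stimulated with GSK1702934A in high-Ca2+ Ringer's (20 mM Ca2+ final). Fluorescence ratio over ~3 min normalized to no-compound and control-blocker wells; IC50 from triplicate curves.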

Row | Compound | IC50 [nM]
1 | COc1cc(C(=O)N2CCC(c3ccc(N)nn3)CC2)ccc1-c1cnc(OC(C)C)nc1 [Compound 62, [4-(6-Amino-pyridazin-3-yl)-piperidin-1-yl]-[4-(2-isopropoxy-pyrimidin-5-yl)-3-methoxy-phenyl]-methanone] | 1100
2 | COc1cc(C(=O)N2CCC(c3ccc(N)nn3)CC2)ccc1-c1ccc(OC2CC2)nc1 [Compound 73, [4-(6-Amino-pyridazin-3-yl)-piperidin-1-yl]-[4-(6-cyclopropoxy-pyridin-3-yl)-3-methoxy-phenyl]-methanone] | 510
3 | COc1cc(C(=O)N2CCC(c3ccc(N)nn3)CC2)ncc1-c1ccc(OCC2CC2)cc1 [Compound 17, [4-(6-Amino-pyridazin-3-yl)-piperidin-1-yl]-[5-(4-cyclopropylmethoxy-phenyl)-4-methoxy-pyridin-2-yl]-methanone] | 75
4 | COc1cc(C(=O)N2CCC(c3ccc(N)nn3)CC2)ncc1-c1ccc(OC(C)C)c(Cl)c1 [Compound 19] | 610
5 | COc1cc(C(=O)N2CCC(c3nnc(N)cc3OC)CC2)ncc1-c1ccccc1 [Compound 87, [4-(6-Amino-4-methoxy-pyridazin-3-yl)-piperidin-1-yl]-(4-methoxy-5-phenyl-pyridin-2-yl)-methanone] | 540
6 | COc1cc(C(=O)N2CCN(c3cnc(N)cc3OC)C[C@@H]2CO)ncc1-c1ccc(C(F)(F)F)cc1 [Compound 95, [(R)-4-(6-Amino-4-methoxy-pyridin-3-yl)-2-hydroxymethyl-piperazin-1-yl]-[4-methoxy-5-(4-trifluoromethyl-phenyl)-pyridin-2-yl]-methanone] | 580
7 | COc1cc(C(=O)N2CCC(c3ccc(N)nn3)CC2)ncc1-c1ccc(OCC2CC2(F)F)nc1 (centres unmarked) [Compound 111, [4-(6-Amino-pyridazin-3-yl)-piperidin-1-yl]-[6′-(2,2-difluoro-cyclopropylmethoxy)-4-methoxy-[3,3′]bipyridinyl-6-yl]-methanone] | 440
8 | COc1cc(C(=O)N2CCC(c3nnc(N)cc3C)CC2)ncc1-c1ccc(C(F)(F)F)cc1 [Compound 88, [4-(6-Amino-4-methyl-pyridazin-3-yl)-piperidin-1-yl]-[4-methoxy-5-(4-trifluoromethyl-phenyl)-pyridin-2-yl]-methanone] | 280
9 | COc1cc(C(=O)N2CCC(c3ccc(N)nn3)CC2)ncc1-c1ccc(F)cc1 [Compound 36, 6-{1-[5-(4-Fluorophenyl)-4-methoxypyridine-2-carbonyl]piperidin-4-yl}pyridazin-3-amine] | 27
10 | COc1cc(C(=O)N2CCC(c3ccc(N)nn3)CC2)ccc1-c1ccc(OCC2CC2(C)C)nc1 (centres unmarked) [Compound 77, [4-(6-Amino-pyridazin-3-yl)-piperidin-1-yl]-{4-[6-(2,2-dimethyl-cyclopropylmethoxy)-pyridin-3-yl]-3-methoxy-phenyl}-methanone] | 160
11 | COc1cc(C(=O)N2CCN(c3cnc(N)cc3OC)C[C@@H]2[C@@H](C)O)ncc1-c1ccc(C(F)(F)F)cc1 [Compound 106, [(R)-4-(6-Amino-4-methoxy-pyridin-3-yl)-2-((R)-1-hydroxy-ethyl)piperazin-1-yl]-[4-methoxy-5-(4-trifluoromethyl-phenyl)-pyridin-2-yl]-methanone] | 440
12 | Nc1ccc(C2CCN(C(=O)c3ccc(-c4ccccc4)cc3)CC2)nn1 [Compound 1, [4-(6-Amino-pyridazin-3-yl)-piperidin-1-yl]-biphenyl-4-yl-methanone] | 3800
13 | COc1cc(C(=O)N2CCC(c3ccc(N)nn3)CC2)ncc1-c1cccc(F)c1 [Compound 35, 6-{1-[5-(3-Fluorophenyl)-4-methoxypyridine-2-carbonyl]piperidin-4-yl}pyridazin-3-amine] | 220
14 | COc1cc(C(=O)N2CCC(c3cnc(N)cc3OC)CC2)ncc1-c1ccc(C(F)(F)F)cc1 [Compound 84, (6-Amino-4-methoxy-3′,4′,5′,6′-tetrahydro-2′H-[3,4′]bipyridinyl-1′-yl)-[4-methoxy-5-(4-trifluoromethyl-phenyl)-pyridin-2-yl]-methanone] | 130
